In the CheMixHub viscosity set:
Where “and” joins values, the source holds several entries; their conditions need not be identical. Equal values may be shown once. ± gives the uncertainty stated by the source.

Test: xn = mol fraction of the nth substance listed

CN(C)CCO + O
viscosity
Conditions	293.15 K	298.15 K	303.15 K	308.15 K	313.15 K	318.15 K	323.15 K
101 kPa, x1 = 0.03444	–	–	1.45 ± 0.06 mPa·s	–	1.14 ± 0.05 mPa·s	–	0.91 ± 0.04 mPa·s
101 kPa, x1 = 0.05	–	–	1.921 ± 0.018 mPa·s	1.657 ± 0.015 mPa·s	–	1.271 ± 0.013 mPa·s	–
101 kPa, x1 = 0.07971	–	–	2.95 ± 0.12 mPa·s and 2.92 ± 0.06 mPa·s	–	2.01 ± 0.04 mPa·s	–	1.56 ± 0.06 mPa·s and 1.51 ± 0.03 mPa·s
101 kPa, x1 = 0.08	4.245 ± 0.025 mPa·s	3.487 ± 0.023 mPa·s	2.898 ± 0.021 mPa·s	2.44 ± 0.02 mPa·s	–	1.791 ± 0.019 mPa·s	1.557 ± 0.018 mPa·s
101 kPa, x1 = 0.1003	–	–	3.662 ± 0.027 mPa·s	3.042 ± 0.023 mPa·s	2.555 ± 0.02 mPa·s	2.183 ± 0.018 mPa·s	–
101 kPa, x1 = 0.1187	–	–	4.64 ± 0.1 mPa·s	–	3.19 ± 0.07 mPa·s	–	2.31 ± 0.05 mPa·s
101 kPa, x1 = 0.1419	–	–	5.19 ± 0.21 mPa·s	–	–	–	2.51 ± 0.1 mPa·s
101 kPa, x1 = 0.1993	–	–	7.496 ± 0.047 mPa·s	6.012 ± 0.044 mPa·s	4.87 ± 0.035 mPa·s	4.018 ± 0.029 mPa·s	–
101 kPa, x1 = 0.2947	–	–	9.838 ± 0.062 mPa·s	7.806 ± 0.056 mPa·s	6.256 ± 0.045 mPa·s	5.104 ± 0.037 mPa·s	–
101 kPa, x1 = 0.3489	–	–	10.24 ± 0.066 mPa·s	8.126 ± 0.058 mPa·s	6.525 ± 0.046 mPa·s	5.309 ± 0.038 mPa·s	–
101 kPa, x1 = 0.4004	–	–	10.1 ± 0.066 mPa·s	8.019 ± 0.057 mPa·s	6.443 ± 0.046 mPa·s	5.268 ± 0.038 mPa·s	–
101 kPa, x1 = 0.453	–	–	9.546 ± 0.063 mPa·s	7.626 ± 0.054 mPa·s	6.189 ± 0.044 mPa·s	5.067 ± 0.036 mPa·s	–
101 kPa, x1 = 0.504	–	–	8.735 ± 0.058 mPa·s	7.048 ± 0.05 mPa·s	5.741 ± 0.041 mPa·s	4.741 ± 0.034 mPa·s	–
101 kPa, x1 = 0.6047	–	–	7.076 ± 0.048 mPa·s	5.815 ± 0.041 mPa·s	4.809 ± 0.034 mPa·s	4.041 ± 0.029 mPa·s	–
101 kPa, x1 = 0.7044	–	–	5.567 ± 0.038 mPa·s	4.675 ± 0.033 mPa·s	3.934 ± 0.028 mPa·s	3.341 ± 0.024 mPa·s	–
101 kPa, x1 = 0.8062	–	–	4.37 ± 0.03 mPa·s	3.722 ± 0.026 mPa·s	3.184 ± 0.023 mPa·s	2.756 ± 0.02 mPa·s	–
101 kPa, x1 = 0.9046	–	–	3.485 ± 0.025 mPa·s	3.015 ± 0.022 mPa·s	2.615 ± 0.019 mPa·s	2.293 ± 0.018 mPa·s	–
101.3 kPa, x1 = 0.1001	6.55 ± 0.06 mPa·s	–	4 ± 0.04 mPa·s	–	2.56 ± 0.03 mPa·s	–	–
101.3 kPa, x1 = 0.1999	10.56 ± 0.09 mPa·s	–	6.7 ± 0.06 mPa·s	–	4.2 ± 0.04 mPa·s	–	3.19 ± 0.03 mPa·s
101.3 kPa, x1 = 0.3	13.17 ± 0.11 mPa·s	–	8.53 ± 0.07 mPa·s	–	5.23 ± 0.05 mPa·s	–	3.69 ± 0.03 mPa·s
101.3 kPa, x1 = 0.4	14.4 ± 0.12 mPa·s	–	9.37 ± 0.08 mPa·s	–	5.7 ± 0.05 mPa·s	–	3.86 ± 0.04 mPa·s
101.3 kPa, x1 = 0.5	14.13 ± 0.12 mPa·s	–	9.3 ± 0.08 mPa·s	–	5.61 ± 0.05 mPa·s	–	3.65 ± 0.04 mPa·s
101.3 kPa, x1 = 0.6001	12.81 ± 0.11 mPa·s	–	8.61 ± 0.08 mPa·s	–	5.08 ± 0.05 mPa·s	–	3.16 ± 0.03 mPa·s
101.3 kPa, x1 = 0.6998	10.51 ± 0.09 mPa·s	–	7.1 ± 0.06 mPa·s	–	4.26 ± 0.04 mPa·s	–	2.64 ± 0.03 mPa·s
101.3 kPa, x1 = 0.8	7.76 ± 0.07 mPa·s	–	5.27 ± 0.05 mPa·s	–	–	–	2.12 ± 0.03 mPa·s
101.3 kPa, x1 = 0.9001	5.2 ± 0.05 mPa·s	–	3.53 ± 0.04 mPa·s	–	2.4 ± 0.03 mPa·s	–	1.84 ± 0.03 mPa·s
